Assays:
[1] = 101.3 kPa, Crystal, Hot wire method
[2] = wn = mass fraction of the nth substance listed; details: 101 kPa, Crystal, Hot wire method

CC(C)(CO)CO [2,2-dimethyl-1,3-propanediol]
[1]
Details	thermal conductivity [W/m/K]
323 K	0.4
333 K	0.38
343 K	0.36
353 K	0.33
363 K	0.32
373 K	0.29
383 K	0.3
393 K	0.31

CC(C)(CO)CO [2,2-dimethyl-1,3-propanediol] + CC1(C)[C@@H]2CC[C@@]1(C)C(=O)C2
[2]
Details	thermal conductivity [W/m/K]
298 K, w2 = 0.7	0.35
303 K, w2 = 0.03	0.38
303 K, w2 = 0.3	0.37
303 K, w2 = 0.7	0.34
303 K, w2 = 0.96	0.3
308 K, w2 = 0.3	0.36
308 K, w2 = 0.7	0.34
313 K, w2 = 0.03	0.37
313 K, w2 = 0.3	0.35
313 K, w2 = 0.7	0.33
313 K, w2 = 0.96	0.3
315 K, w2 = 0.7	0.33
317 K, w2 = 0.7	0.33
318 K, w2 = 0.3	0.34
319 K, w2 = 0.7	0.32
321 K, w2 = 0.7	0.32
323 K, w2 = 0	0.4
323 K, w2 = 0.03	0.36
323 K, w2 = 0.3	0.33
323 K, w2 = 0.7	0.32
323 K, w2 = 0.96	0.3
325 K, w2 = 0.7	0.31
328 K, w2 = 0.3	0.32
328 K, w2 = 0.7	0.31
333 K, w2 = 0	0.38
333 K, w2 = 0.03	0.35
333 K, w2 = 0.3	0.31
333 K, w2 = 0.7	0.31
333 K, w2 = 0.96	0.29
338 K, w2 = 0.7	0.31
343 K, w2 = 0	0.36
343 K, w2 = 0.03	0.34
343 K, w2 = 0.7	0.31
343 K, w2 = 0.96	0.29
348 K, w2 = 0.7	0.3
353 K, w2 = 0	0.33
353 K, w2 = 0.03	0.32
353 K, w2 = 0.7	0.3
353 K, w2 = 0.96	0.29
358 K, w2 = 0.7	0.29
363 K, w2 = 0	0.32
363 K, w2 = 0.7	0.28
363 K, w2 = 0.96	0.28
373 K, w2 = 0	0.29
373 K, w2 = 0.96	0.28
383 K, w2 = 0	0.3
383 K, w2 = 0.96	0.28
393 K, w2 = 0	0.31
393 K, w2 = 0.96	0.27
403 K, w2 = 0.96	0.27
413 K, w2 = 0.96	0.26
423 K, w2 = 0.96	0.26
433 K, w2 = 0.96	0.25

— the NIST ThermoML archive (doi:10.1016/j.tca.2011.12.021)
